Results as given in US11234992B2, “Methods and therapies for treating atherosclerosis and/or hyperlipidemia using oligosaccharides” (The Regents of the University of California, priority 2018, dated 2022).
In brackets after ≈: the same amount, converted by molar mass. Entries after “also recorded” stand apart in the source; their conditions may differ.

Assays:
IL-6 = assay: Attenuation of IL-6 cytokine expression (IC50); format: cell-based
Method: (§1) In particular, pooled HMOs (˜100 μg/mL) attenuated LPS-induced M1 polarization and importantly its subsequent cytokine expression (IL-1β, IL-6, etc. mRNA and protein levels) in a mouse macrophage cell line (RAW246) and in primary bone marrow derived macrophages (BMDM). […] Moreover, the attenuation effects remain when cells are stimulated with LipidA instead of LPS, excluding carbohydrate-carbohydrate interactions between LPS and HMOs above the cell surface.

[1] = system: mice on a high fat diet (HFD); assay: In vivo atherosclerosis/hyperlipidemia mouse model on high fat diet; conditions: for inflammation in the liver, adipose tissue and arterial vessel wall / systemic secretion of pro-inflammatory cytokines like IL-1β and IL-6: in vitro and in vivo studies
Method: FIG. 1 provides a diagram of a mouse model used to test 3′SL effects on atherosclerosis. In particular, the mice are fed a high fat diet for two weeks prior to treatment in order to promote atherosclerosis in the mice. Treatment begins at the end of the second week with 3′SL or vehicle, whereby 3′SL or vehicle are administered to the mice twice daily at a dose of 90 mg/gavage. After 6 weeks of treatment, the mice are sacrificed and atherosclerosis lesions and plaques are assessed.
The complex pathology of atherosclerosis is characterized by the accumulation of lipids, inflammatory cells, and fibrous elements in large- and medium-sized arteries. According to the “response-to-retention” model, focal infiltration and retention of apolipoprotein B (apoB)-containing lipoproteins, such as low-density lipoproteins (LDLs), lipoprotein (a), and triglyceride-rich remnant particles (TRLs), in the subendothelial matrix of the tunica intima of arteries at atherosclerosis-prone sites initiates atherogenesis. Subsequent oxidation, lipolysis, proteolysis, and further aggregation of trapped LDL particles contribute to a chronic inflammatory response characterized by monocyte and T cell migration into the intima. Monocytes entering the plaque differentiate into macrophages and the expression of scavenger receptors result in internalization of modified lipoprotein particles. Lesion macrophages proliferate, accumulate massive amounts of cholesterol, and become lipid droplet-loaded “foam cells,” resulting in their retention in the lesion. Atherosclerosis is further characterized by the accumulation of M1-like macrophages and secretion of characteristic cytokines and chemokines. Priming of macrophages is sufficient to promote increased macrophage infiltration and inflammation in aorta, exacerbating atherosclerosis. […] Therefore, we will use Ldlr^−/− mice with a hypercholesterolemic background to study atherosclerosis development, which has several advantages: (1) cholesterol in Ldlr^−/− mice is mainly restricted to LDL particles resembling the situation in humans; (2) because of the minor importance of Ldlr in bone marrow derived cells related to atherosclerosis, the Ldlr^−/− mice are a very suitable model to study the role of candidate genes in these cells; (3) initiation of atherosclerotic plaque development can be highly controlled, as atherosclerosis will develop only upon feeding a high-fat/high-cholesterol diet.
Atherogenesis is determined by “en face” preparation of the entire aorta and Sudan IV staining to determine lipid infiltration as a measure for lesion surface as described in Gordts et al. (Arterioscler Thromb Vasc Biol. 29:1258-64 (2009)). In addition, the heart is isolated for sectioning of the aortic root to determine aortic root lesion area and qualitative assessment of the plaque phenotype. Aortic root cross-sectional atherosclerosis is measured by cutting 10 μm paraffin sections starting at the aortic valve plane and covering 1,000 μm in 100-μm increments. Two approaches are used to assess if 3′SL administration affects plaque stability and inflammatory cell composition in atherosclerotic plaques. Sections are immunostained using various antibodies to identify smooth muscle cells and macrophages and apoB content as well as the presence of oxidation-specific antibodies reflective of OxLDL. The extracellular content is visualized via staining using Oil red O (lipids), Hematoxylin and Eosin (necrotic core), Movat Pentachrome (proteoglycans), Masson-Goldner (collagen) and Verhoeffs van Gieson (elastin) staining protocols. As a measurement of the clinically relevant plaque vulnerability/stability in advanced lesions, fibrous cap thickness is determined by comparing serial sections each stained for smooth muscle cells and collagens, and the extent of necrosis will be quantified using imaging techniques as described in Gordts P L et al. (Cell Metabolism 20:813-26 (2014)). […]

MAPK pathway = assay: Downstream signalling in BMDM, MAPK pathway; format: cell-based, mouse; conditions: in the absence and presence of LPS
Method: as §1
To elucidate the receptor, signaling pathway and downstream transcription regulated by 3′SL in BMDM, a three-prong approach is utilized: (a) Whole Transcriptome Shotgun Sequencing (WTSS) is used to identify differentially regulated genes. […] In both approaches, naive BMDM is compared with 3′SL-treated BMDM as well LPS-stimulated BMDM and LPS-treated BMDM co-treated with 3′SL; and (c) A 3′SL affinity matrix is generated to run macrophage plasma membrane and isolate 3′SL binding proteins. Proteins are eluted from the matrix using different salt gradients and analyzed by silvers staining. Relevant elution fraction and individual protein bands are isolated and prepared for mass-spectrometry analysis. The above three-way approach allows for the identification of the receptor, signaling pathway and downstream transcription that is regulated by 3′SL. […]

[2] = system: mouse macrophage cell line (RAW246); assay: LPS-induced M1 polarization and cytokine expression in mouse macrophage cell line; format: cell-based; conditions: preliminary results
Method: as §1
(§2) Here, the aim is to test whether the results translate to in vivo efficacy in a short-term and a long-term disease model of chronic inflammation. Rheumatoid arthritis (RA) is an inflammatory disorder that affects approximately 1% of the adult population worldwide. It is characterized by systemic and local inflammation that leads to cartilage and bone destruction. Collagen antibody-induced arthritis (CAIA) is a simple RA mouse model that can be used to address questions of pathogenic mechanisms and to screen candidate therapeutic agents. Arthritis is induced by the systemic administration of a cocktail of monoclonal antibodies that target various regions of collagen type II, which is one of the major constituents of articular cartilage matrix proteins, together with LPS. […]

[3] = system: LPS-activated Thp-1 cells (human cell line); assay: Cytokine expression in LPS-activated Thp-1 cells; format: cell-based
IL-1β = assay: Attenuation of IL-1β cytokine expression (IC50); format: cell-based; conditions: cell type not given
Method: as §1

[4] = system: primary bone marrow derived macrophages (BMDM); assay: LPS-induced M1 polarization and cytokine expression in primary bone marrow derived macrophages; format: cell-based; conditions: primary mouse cells; preliminary results
Method: as §1, §2

[5] = summary statement, lipid metabolism

| IC50 (IL-6; cell type not given) | IC50 (IL-1β) | SMILES | therapeutic effect (IL-6; test not specified, stated directly after the 3′SL cytokine IC50 values) | inflammation in the liver, adipose tissue and arterial vessel wall ([1]; summary statement) | systemic secretion of pro-inflammatory cytokines like IL-1β and IL-6 ([1]; summary statement) | down-stream activation of the MAPK pathway (MAPK pathway) | LPS-induced M1 polarization and subsequent cytokine expression (IL-1b, IL-6, etc. mRNA and protein levels) [2] | cytokine expression ([3]; LPS-activated Thp-1 cells) | LPS-induced M1 polarization and subsequent cytokine expression (IL-1b, IL-6, etc. mRNA and protein levels) ([3]; human cell line, preliminary results) | plasma triglycerides (TG) levels ([1]; mice on high fat diet, 3′SL twice daily 90 mg/gavage for 6 weeks vs vehicle, FIG. 2A) | cholesterol levels ([1]; mice on high fat diet, 3′SL twice daily 90 mg/gavage for 6 weeks vs vehicle, FIG. 2B) | lesion area of atherosclerotic lesions (En Face) ([1]; mice on high fat diet, 3′SL twice daily 90 mg/gavage for 6 weeks vs vehicle, FIG. 3A) | aortic plaque size ([1]; mice on high fat diet, 3′SL twice daily 90 mg/gavage for 6 weeks vs vehicle, FIG. 3B) | lipase activity [1, 5] | postprandial lipid clearance [1, 5] | LPS-induced M1 polarization and subsequent cytokine expression (IL-1b, IL-6, etc. mRNA and protein levels) [4] |
| --- | --- | --- | --- | --- | --- | --- | --- | --- | --- | --- | --- | --- | --- | --- | --- | --- |
| – | – | CC(=O)N[C@H]1[C@H]([C@H](O)[C@H](O)CO)O[C@@](OC[C@H]2O[C@@H](O[C@H]3[C@H](O)[C@@H](O)[C@H](O)O[C@@H]3CO)[C@H](O)[C@@H](O)[C@H]2O)(C(=O)O)C[C@@H]1O [6′SL, 6′-sialyllactose] | therapeutic effect | attenuate | suppresses | – | – | – | – | – | – | – | – | – | – | – |
| ~16.5 µg/mL (≈ 26 µM) | ~44.4 µg/mL (≈ 70.1 µM) | CC(=O)NC1C(O)CC(OC2C(O)C(CO)OC(OC(C(O)CO)C(O)C(O)C=O)C2O)(C(=O)O)OC1C(O)C(O)CO (stereo not drawn) [3′SL, 3′-sialyllactose] | – | attenuate | suppresses | regulate down-stream activation | attenuates | effectively reduced | attenuates | lower plasma triglyceride levels; also recorded: significant decrease | lower cholesterol levels; also recorded: significant decrease | smaller lesion areas; also recorded: significantly reduced in size | smaller sized plaques; also recorded: significantly reduced | promoting | promoting | attenuates |
